ChEMBL document CHEMBL1136535, “Unexpected inhibition of S-adenosyl-L-homocysteine hydrolase by a guanosine nucleoside” (Bioorg Med Chem Lett, 2003)

Key:
Adenosylhomocysteinase [1] = target: T1, Adenosylhomocysteinase (Homo sapiens, UniProt P23526); test: Inhibitory activity against S-adenosyl-L-homocysteine hydrolase was determined in hydrolysis direction
Adenosylhomocysteinase [2] = target: T1, Adenosylhomocysteinase; test: Inhibitory activity against S-adenosyl-L-homocysteine hydrolase was determined in synthetic directions
Adenosylhomocysteinase [3] = target: T1, Adenosylhomocysteinase; test: Inhibitory activity against S-adenosyl-L-homocysteine hydrolase was determined

T1 sequence (P23526 whole entry): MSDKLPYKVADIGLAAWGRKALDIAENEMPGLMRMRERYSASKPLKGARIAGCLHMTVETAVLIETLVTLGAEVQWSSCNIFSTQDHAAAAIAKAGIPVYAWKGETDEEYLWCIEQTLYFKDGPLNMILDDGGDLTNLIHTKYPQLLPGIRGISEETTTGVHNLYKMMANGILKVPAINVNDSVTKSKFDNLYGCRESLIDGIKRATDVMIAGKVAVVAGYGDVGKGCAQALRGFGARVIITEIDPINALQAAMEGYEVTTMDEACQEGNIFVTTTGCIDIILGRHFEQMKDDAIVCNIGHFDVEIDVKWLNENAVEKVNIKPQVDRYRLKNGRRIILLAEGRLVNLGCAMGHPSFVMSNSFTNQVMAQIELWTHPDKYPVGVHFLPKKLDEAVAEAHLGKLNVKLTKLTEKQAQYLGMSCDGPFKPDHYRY

Row | Structure (SMILES) | Ki (Adenosylhomocysteinase [1]) | Ki (Adenosylhomocysteinase [2]) | Ki (Adenosylhomocysteinase [3])
1 | Nc1nc(O)cc(-c2cncn2C2O[C@H](CO)[C@@H](O)[C@H]2O)n1 (stereo not given in full) | 128 µM | 217 µM | 
2 | Nc1nc2c(ncn2[C@@H]2O[C@H](CO)[C@@H](O)[C@H]2O)c(=O)[nH]1 [GUANOSINE] |  |  | 1470 µM
3 | OC[C@H]1O[C@@H](n2cnc3c(O)ncnc32)[C@H](O)[C@@H]1O [INOSINE] |  |  | 925 µM
4 | OC[C@H]1OC(n2cncc2-c2cc(O)ncn2)[C@H](O)[C@@H]1O (stereo not given in full) |  |  | 422 µM
